Columns and labels:
Assay type in all cases: functional, organism-based
[1] = test system: Rotavirus; experiment: Inhibitory activity against NCDV(bovine) rotavirus strain.
[2] = test system: Rotavirus; experiment: Inhibitory activity against SA11 (simian) rotavirus strain.
[3] = test system: Rotavirus; experiment: Inhibitory activity against UK(bovine) rotavirus strain.
[4] = test system: Rotavirus; experiment: Inhibitory activity against Wa(human) rotavirus strain.

Row | Compound | IC50 [1] [mM] | IC50 [2] [mM] | IC50 ([1]; Rotavirus) [mM] | IC50 [3] [mM] | IC50 ([2]; Rotavirus) [mM] | IC50 [4] [mM]
1 | COC1OC(CSC2(C(=O)O)CC(O)C(NC(C)=O)C([C@H](O)[C@H](O)CO)O2)C(O)C(O)C1O (stereo in doubt; 14) | 6.25 | 25 | – | – | – | –
2 | COC1OC(CO)C(SC2(C(=O)O)CC(O)C(NC(C)=O)C([C@H](O)[C@H](O)CO)O2)C(O)C1O (some centres undefined) | – | – | 6.25 | > 25 | 25 | > 25
3 | COC1OC(CSC2(C(=O)O)CC(O)C(NC(C)=O)C([C@H](O)[C@H](O)CO)O2)C(O)C(O)C1O (stereo in doubt; 16) | – | – | 6.25 | > 25 | 12.5 | > 25
4 | CO[C@H]1O[C@H](CSC2(C(=O)O)CC(O)C(NC(C)=O)C(C(O)[C@H](O)CO)O2)[C@@H](O)[C@@H]1O (single isomer, unassigned) | – | – | 6.25 | > 25 | > 25 | > 25
5 | COC1OC(CSC2(C(=O)O)CC(O)C(NC(C)=O)C([C@H](O)[C@H](O)CO)O2)C(O)C(O)C1NC(C)=O (some centres undefined) | – | – | 6.25 | > 25 | 25 | > 25
6 | COC1OC(CSC2(C(=O)O)CC(O)C(NC(C)=O)C([C@H](O)[C@H](O)COC(C)=O)O2)C(OC(C)=O)C(O)C1O (some centres undefined) | – | – | 1.5 | 12.5 | 25 | > 25
7 | COC1OC(CSC2(C(=O)O)CC(O)C(NC(C)=O)C([C@H](O)[C@H](O)COC(C)=O)O2)C(O)C(O)C1NC(C)=O (some centres undefined) | – | – | 0.35 | 12.5 | > 25 | > 25
8 | COC1OC(CSC2(C(=O)O)CC(O)C(NC(C)=O)C([C@H](O)[C@H](O)COC(C)=O)O2)C(O)C(O)C1O (some centres undefined) | – | – | 1.5 | 25 | > 25 | > 25
9 | CC(=O)NC1C(O)CC(SC[C@@H](O)C2OC3OC(C)(C)OC3C2O)(C(=O)O)OC1[C@H](O)[C@H](O)CO (some centres undefined) | – | – | 6.25 | 25 | 6.25 | > 25

Reference: ChEMBL document CHEMBL1129528, “Synthesis and biological evaluation of N-acetylneuraminic acid-based rotavirus inhibitors” (J Med Chem, 1996)
